As usually defined, the pIC50 is −log10 of the IC50, conventionally taken in molar units.

Consider 50 molecules from US20240025924A1, “HETEROCYCLE SUBSTITUTED KETONE DERIVATIVE, AND COMPOSITION AND MEDICINAL USE THEREOF” (SHANGHAI HAIYAN PHARMACEUTICAL TECHNOLOGY CO., LTD., priority 2021, published 2024).

One experiment concerns the target T1, SHP-2 enzyme (Homo sapiens, UniProt Q06124).
T1 construct: Homogeneous Full Length SHP-2 Assay Kit (BPS Bioscience #79330); purchased BPS Bioscience 79330
T1 sequence (Q06124 1-593): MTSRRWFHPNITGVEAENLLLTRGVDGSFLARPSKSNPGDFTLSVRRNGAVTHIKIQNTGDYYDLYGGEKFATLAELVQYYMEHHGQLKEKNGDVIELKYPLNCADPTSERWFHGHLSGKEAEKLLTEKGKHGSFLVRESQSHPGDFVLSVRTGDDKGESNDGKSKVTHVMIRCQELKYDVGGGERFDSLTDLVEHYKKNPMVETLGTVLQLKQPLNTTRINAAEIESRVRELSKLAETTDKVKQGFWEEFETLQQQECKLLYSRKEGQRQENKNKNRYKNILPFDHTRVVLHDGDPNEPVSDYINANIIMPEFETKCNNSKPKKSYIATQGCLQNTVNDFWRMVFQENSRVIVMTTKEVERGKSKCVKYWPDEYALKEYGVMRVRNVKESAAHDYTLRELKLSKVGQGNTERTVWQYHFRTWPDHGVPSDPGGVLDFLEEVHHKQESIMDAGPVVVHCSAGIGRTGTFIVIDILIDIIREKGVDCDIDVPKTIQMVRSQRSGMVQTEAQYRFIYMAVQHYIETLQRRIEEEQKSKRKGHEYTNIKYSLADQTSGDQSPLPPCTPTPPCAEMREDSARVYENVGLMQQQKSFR
Briefly: Phosphatase activity assay (Homogeneous Full Length SHP-2 Assay Kit, DiFMUP substrate). The conditions noted are these: full length SHP-2 activated with 0.5 μM SHP-2 activating Peptide; 1 hour co-incubation; DiFMUP 50 μM, 30 min. It is filed as biochemical. As to the method: IC50 values were assayed using Homogeneous Full Length SHP-2 Assay Kit (BPS Bioscience #79330), which uses 6,8-difluoro-4-methylumbelliferone phosphate (DiFMUP) as the reaction substrate. SHP2 enzyme solution (diluted to 0.04 ng/μL with 1*buffer) was mixed with 0.5 μM SHP-2 activating Peptide in a 1*buffer solution containing 2.5 mM DTT to activate PTP. At the same time, DMSO (0.1% (V/V)) or the compounds (concentration: 0.5 nM to 1 μM) were added, mixed and co-incubated for 1 hour. DiFMUP (50 μM, total reaction system volume of 20 μL) was added, and the reaction was started. After 30 min of incubation, the fluorescence intensity of the reaction system (excitation wavelength: 350 nm, emission wavelength: 460 nm) was measured by Tecan Infinite M1000.

For another experiment, the system named is MV-4-11 cell. The experiment can be described thus: Cell proliferation assay (Cell Titer-Glo). It counts as cell-based. The settings on record: Homo sapiens, MV4-11, 96 h, inhibition of MV-4-11 cell proliferation; Cell Titer-Glo on day 4. The protocol: MV 411 cells (20000 cells/well) were inoculated and cultured in 96 (Corning #3916) well plates, and the medium was 80 μL/well (IMDM with 10% fetal bovine serum (FBS), Gibco #10099-141C). After 24 hours of incubation, 20 μL of the compounds of the present invention configured to different concentrations (DMSO final concentration of 0.1% (V/V)) were added. On day 4, 60 μL of Cell Titer-Glo (Promega #G7558) was added to each well and mixed at 80 rpm, 25° C., 15 min, and the fluorescence values were detected by Victor X5 (PE).
For orientation: In ATP-based viability assays light output follows the ATP content of the culture.

pIC50: −log10 of the molar value.

Consider `Nc1nc(N2CCC3(CC2)Cc2ccc(Cl)cc2C3N)cnc1C(=O)N1CCCn2nccc21` (centres unmarked) [Compound 2], for which the results for the pIC50 at SHP-2 enzyme and in the experiment on MV-4-11 cell were 8.40 and 7.62, respectively.
On to `Nc1nc(N2CCC3(CC2)Cc2ccccc2C3N)cnc1C(=O)N1CCCn2nccc21` (centres unmarked) [Compound 3], for which the pIC50 on SHP-2 enzyme is 7.89; with MV-4-11 cell, 7.27.
As to `Nc1nc(N2CCC3(CC2)Cc2cc(F)ccc2C3N)cnc1C(=O)N1CCCn2nccc21` (centres unmarked) [Compound 4], the pIC50 is 9.00 at SHP-2 enzyme and 7.11 in the experiment with MV-4-11 cell.
As to `COc1ccc2c(c1)C(N)C1(CCN(c3cnc(C(=O)N4CCCn5nccc54)c(N)n3)CC1)C2` (centres unmarked) [Compound 5], the figures for the pIC50 at SHP-2 enzyme and with MV-4-11 cell were 9.00 and 6.66, respectively.
Regarding `Nc1nc(N2CCC3(CC2)Cc2ccccc2C3N)cnc1C(=O)N1CCOc2cccnc21` (centres unmarked) [Compound 6], the pIC50 on SHP-2 enzyme was 7.08.
Consider `Nc1nc(N2CCC3(CC2)Cc2ccccc2C3N)cnc1C(=O)N1CCc2ncccc21` (centres unmarked) [Compound 7], for which the pIC50 at SHP-2 enzyme was 8.22; with MV-4-11 cell, 7.02.
In the same order, the values of `Nc1nc(N2CCC3(CC2)Cc2ccc(F)cc2C3N)cnc1C(=O)N1CCCn2nccc21` (centres unmarked) [Compound 8] are 8.30 and 6.95.
For `NC1c2ccccc2CC12CCN(c1cnc(C(=O)N3CCCn4nccc43)cn1)CC2` (centres unmarked) [Compound 9], the pIC50 on SHP-2 enzyme is 7.23.
Consider `Nc1nc(N2CCC3(CC2)Cc2ccccc2C3N)cnc1C(=O)N1CCc2ncsc2C1` (centres unmarked) [Compound 10], for which the pIC50 at SHP-2 enzyme is 8.40; in the experiment on MV-4-11 cell, 7.36.
As to `Nc1nc(N2CCC3(CC2)Cc2ccccc2C3N)cnc1C(=O)N1CCOc2ncccc21` (centres unmarked) [Compound 11], at SHP-2 enzyme, the pIC50 was 7.62.
Turning to `Nc1nc(N2CCC3(CC2)Cc2ccccc2C3N)cnc1C(=O)N1CCCc2cccnc21` (centres unmarked) [Compound 12], the pIC50 at SHP-2 enzyme was 7.31.
With `Nc1nc(N2CCC3(CC2)Cc2ccccc2C3N)cnc1C(=O)N1CCCc2ncccc21` (centres unmarked) [Compound 13], the results for the pIC50 on SHP-2 enzyme and in the experiment on MV-4-11 cell were 7.96 and 7.09, respectively.
Take `Nc1nc(N2CCC3(CC2)Cc2ccccc2C3N)cnc1C(=O)N1CCCc2c(Cl)cccc21` (centres unmarked) [Compound 14]: the pIC50 on SHP-2 enzyme was 7.66.
Consider `N#Cc1cccc2c1CCCN2C(=O)c1ncc(N2CCC3(CC2)Cc2ccccc2C3N)nc1N` (centres unmarked) [Compound 15], for which the pIC50 on SHP-2 enzyme is 7.89; in the experiment on MV-4-11 cell, 6.77.
The like results for `Nc1nc(N2CCC3(CC2)Cc2ccc(F)cc2C3N)cnc1C(=O)N1CCc2ncccc21` (centres unmarked) [Compound 16] were, in that order, 8.30 and 7.40.
Turning to `Nc1nc(N2CCC3(CC2)Cc2ccc(F)cc2C3N)cnc1C(=O)N1CCc2ncsc2C1` (centres unmarked) [Compound 17], the pIC50 on SHP-2 enzyme is 8.40; in the experiment with MV-4-11 cell it was 7.77.
Consider `Nc1nc(N2CCC3(CC2)Cc2ccccc2C3N)cnc1C(=O)N1CCc2scnc2C1` (centres unmarked) [Compound 19], for which the pIC50 is 8.30 on SHP-2 enzyme and 6.85 in the experiment on MV-4-11 cell.
As for `Nc1nc(N2CCC3(CC2)Cc2ccccc2C3N)cnc1C(=O)N1Cc2cccnc2C1` (centres unmarked) [Compound 20], the pIC50 on SHP-2 enzyme was 7.77.
Take `Nc1nc(N2CCC3(CC2)Cc2cc(F)ccc2C3N)cnc1C(=O)N1CCc2ncccc21` (centres unmarked) [Compound 21]: the results for the pIC50 at SHP-2 enzyme and in the experiment with MV-4-11 cell were 8.52 and 6.97, respectively.
Turning to `Nc1nc(N2CCC3(CC2)Cc2ccc(C(F)(F)F)cc2C3N)cnc1C(=O)N1CCCn2nccc21` (centres unmarked) [Compound 22], the pIC50 on SHP-2 enzyme was 8.22; in the experiment with MV-4-11 cell, 7.11.
For `NC(=O)c1nc(C(=O)N2CCCn3nccc32)cnc1N1CCC2(CC1)Cc1ccccc1C2N` (centres unmarked) [Compound 23], the pIC50 at SHP-2 enzyme is 7.66.
The same measure, in the same setting: then `Nc1nc(N2CCC3(CC2)Cc2sc(Cl)nc2C3N)cnc1C(=O)N1CCCn2nccc21` (centres unmarked) [Compound 25], with 7.82.
As for `Cc1nc(C(=O)N2CCCn3nccc32)c(N)nc1N1CCC2(CC1)Cc1ccc(F)cc1C2N` (centres unmarked) [Compound 27], the results for the pIC50 on SHP-2 enzyme and in the experiment with MV-4-11 cell were 8.30 and 7.01, respectively.
`Nc1nc(N2CCC3(CC2)Cc2ccccc2C3N)c(Cl)nc1C(=O)N1CCCn2nccc21` (centres unmarked) [Compound 28]: the values for the pIC50 on SHP-2 enzyme and in the experiment with MV-4-11 cell were 8.40 and 7.36, respectively.
Turning to `Nc1nc(N2CCC3(CC2)Cc2ccccc2C3N)c(Br)nc1C(=O)N1CCCn2ncc(Br)c21` (centres unmarked) [Compound 29], on SHP-2 enzyme, the pIC50 is 7.37.
`Nc1nc(N2CCC3(CC2)Cc2ccccc2C3N)c(Cl)nc1C(=O)N1CCCn2ncc(Cl)c21` (centres unmarked) [Compound 31]: the pIC50 at SHP-2 enzyme is 7.33.
For the molecule `Cc1cc2n(n1)CCCN2C(=O)c1ncc(N2CCC3(CC2)Cc2ccccc2C3N)nc1N` (centres unmarked) [Compound 32], at SHP-2 enzyme, the pIC50 is 7.55.
Regarding `Cn1cc(-c2ccc3c(n2)CCCN3C(=O)c2ncc(N3CCC4(CC3)Cc3ccccc3C4N)nc2N)cn1` (centres unmarked) [Compound 33], the results for the pIC50 on SHP-2 enzyme and in the experiment with MV-4-11 cell were 7.54 and 6.55, respectively.
Regarding `N#Cc1ccc2c(c1)C(N)C1(CCN(c3cnc(C(=O)N4CCCn5nccc54)c(N)n3)CC1)C2` (centres unmarked) [Compound 34], the pIC50 on SHP-2 enzyme is 8.22; in the experiment on MV-4-11 cell, 7.25.
For `CC1(C)CN(C(=O)c2ncc(N3CCC4(CC3)Cc3ccccc3C4N)nc2N)c2cccnc21` (centres unmarked) [Compound 36], the pIC50 at SHP-2 enzyme is 7.74.
On the same count and under the same terms, for `Nc1nc(N2CCC3(CC2)Cc2ncccc2C3N)cnc1C(=O)N1CCCn2nccc21` (centres unmarked) [Compound 39] the value was 7.44; for `Cc1nc(N2CCC3(CC2)Cc2ccccc2C3N)c(CO)nc1C(=O)N1CCCn2nccc21` (centres unmarked) [Compound 43], 7.22; for `Cc1nc(N2CCC3(CC2)Cc2ccccc2C3N)c(C(N)=O)nc1C(=O)N1CCCn2nccc21` (centres unmarked) [Compound 44], 7.60.
Turning to `Nc1nc(N2CCC3(CC2)Cc2cc(Cl)ccc2C3N)cnc1C(=O)N1CCCn2nccc21` (centres unmarked) [Compound 48], on SHP-2 enzyme, the pIC50 is 8.40.
For the molecule `Nc1nc(N2CCC3(CC2)Cc2ccccc2C3N)cnc1C(=O)N1CCc2ncncc21` (centres unmarked) [Compound 51], the pIC50 on SHP-2 enzyme was 7.46.
For the molecule `Nc1nc(N2CCC3(CC2)Cc2cc(C(F)(F)F)ccc2C3N)cnc1C(=O)N1CCCn2nccc21` (centres unmarked) [Compound 55], at SHP-2 enzyme, the pIC50 is 7.30.
Take `CC(C)(O)c1ccc2c(c1)C(N)C1(CCN(c3cnc(C(=O)N4CCCn5nccc54)c(N)n3)CC1)C2` (centres unmarked) [Compound 56]: the pIC50 at SHP-2 enzyme was 7.68.
On the same count and under the same terms, then `CC1CN(C(=O)c2ncc(N3CCC4(CC3)Cc3ccccc3C4N)nc2N)c2cccnc21` (centres unmarked) [Compound 57], with 8.22.
In turn, `CC1(C)Cc2nc(N)sc2CN1C(=O)c1ncc(N2CCC3(CC2)Cc2ccccc2C3N)nc1N` (centres unmarked) [Compound 69] gave a pIC50 in the experiment on MV-4-11 cell of 7.31.
Take `[2H]C1([2H])CN(C(=O)c2ncc(N3CCC4(CC3)Cc3ccc(C)cc3C4N)nc2N)Cc2sc(N)nc21` (centres unmarked) [Compound 71]: the pIC50 with MV-4-11 cell is 7.80.
Still for that read-out and setting: then `Cc1ccc2c(c1)C(N)C1(CCN(c3cnc(C(=O)N4Cc5sc(N)nc5C(F)(F)C4)c(N)n3)CC1)C2` (centres unmarked) [Compound 72], with 7.92; and `COc1ccc2c(c1)C(N)C1(CCN(c3cnc(C(=O)N4Cc5sc(N)nc5C(F)(F)C4)c(N)n3)CC1)C2` (centres unmarked) [Compound 73], with 7.72.
For the molecule `Nc1nc2c(s1)CN(C(=O)c1cnc(N3CCC4(CC3)Cc3ccccc3C4N)c(CO)n1)CC2(F)F` (centres unmarked) [Compound 74], the pIC50 in the experiment with MV-4-11 cell is 8.22.
For the molecule `Nc1ccc2c(n1)CCN2C(=O)c1ncc(N2CCC3(CC2)Cc2cccc(F)c2C3N)nc1N` (centres unmarked) [Compound 90], at SHP-2 enzyme, the pIC50 was 7.62.
The same measure, in the same setting: for `Nc1ccc2c(n1)CCN2C(=O)c1ncc(N2CCC3(CC2)Cc2ccncc2C3N)nc1N` (centres unmarked) [Compound 97] the value was 8.00; for `Nc1ccc2c(n1)CCCN2C(=O)c1ncc(N2CCC3(CC2)Cc2ccccc2C3N)nc1N` (centres unmarked) [Compound 98], 7.59.
Regarding `Cc1nc(N2CCC3(CC2)Cc2ccccc2C3N)c(CO)nc1C(=O)N1CCc2nc(N)ccc21` (centres unmarked) [Compound 111], the pIC50 on SHP-2 enzyme is 7.82.
Still for that read-out and setting: then `CC1(C)Cc2nc(N)sc2CN1C(=O)c1ncc(N2CCC3(CC2)Cc2ccccc2C3N)nc1N` (centres unmarked) [Compound 121], with 8.05; and `[2H]C1([2H])CN(C(=O)c2ncc(N3CCC4(CC3)Cc3ccc(C)cc3C4N)nc2N)Cc2sc(N)nc21` (centres unmarked) [Compound 123], with 8.30.
On the same count and under the same terms, for `Cc1ccc2c(c1)C(N)C1(CCN(c3cnc(C(=O)N4Cc5sc(N)nc5C(F)(F)C4)c(N)n3)CC1)C2` (centres unmarked) [Compound 124] the value was 8.05.
